Reference: patent US10253041B2, “7-phenylethylamino-4H-pyrimido[4,5-d][1,3]oxazin-2-one compounds and their use as mutant IDH1 inhibitors” (Eli Lilly and Company, priority 2015, dated 2019)
Read-outs that look alike come from different tables or passages of the source.

Experiments:
[1] = biological target: T1, IDH1/R132C (Homo sapiens, UniProt O75874, R132C); assay: Biochemical assay for IDH1 R132C mutant enzyme (2HG by RapidFire MS); settings: mean ± standard deviation of the mean; 90 minutes reaction
T1 construct: His-tag (N); made in house; host or cells: E. coli
Protocol: (§1) IDH1-R132H, IDH1-R132C, IDH2-R172K and IDH2-R140Q mutant enzymes catalyze the conversion of αKG to 2HG. 2HG is analyzed using in-line solid phase extraction and mass spectrometry. This analysis is carried out in a RapidFire® instrument coupled to a 6460 triple quadrupole mass spectrometer (G6460A Agilent).
(§2) IDH1 mutant (R132H and R132C) and IDH2 mutant (R140Q and R172K) proteins containing N-terminal His-tag are expressed in E. coli and purified using nickel affinity chromatography. The enzyme assays are carried out in V-bottom 96 well polypropylene plates containing 100 mM Tris-HCl buffer, 1 mM DTT, 0.005% TRITON™ X-100, 120 mM NaCl. For IDH1 R132H, α-ketoglutarate, NADPH and MnCl2 are included at final concentrations of 300 μM, 2.5 μM and 300 μM respectively. For IDH1 R132C, α-ketoglutarate, NADPH and MnCl2 are included at final concentrations of 100 μM, 10 μM and 100 μM respectively. For IDH2 R172K, α-ketoglutarate, NADPH and MnCl2 are included at final concentrations of 150 μM, 10 μM and 150 μM respectively. For IDH2 R140Q, α-ketoglutarate, NADPH and MnCl2 are included at final concentrations of 3000 μM, 10 μM and 100 μM respectively. Final pH=7.0. Test compound dissolved in DMSO stock is diluted in the reaction mix at a final DMSO concentration of 4%. Compounds are tested in dose-response format. The assay is started by addition of enzyme. Enzymes are used at the following final concentrations: IDH1 R132H, 2 nM; IDH1 R132C, 0.5 nM; IDH2 R172K, 1.2 nM; IDH2 R140Q, 1.2 nM. After 90 minutes the reaction is quenched by adding ACN (50:50) containing 3-hydroxy-1,5-pentanedioic-2,2,3,4,4-d5 acid (5d5-3HG) as an internal standard for mass spectrometry analysis and quantitation of reaction product. 2-Hydroxyglutarate (2HG) in quenched samples is separated using strong anionic exchange column chromatography (Phenomenex Strata-X-A SecurityGuard) and analyzed by mass spectrometry in a 6460 triple quadrupole mass spectrometer (G6460A Agilent). The 2HG signal detected is transformed into an analyte concentration using a calibration curve generated using known 2HG concentrations. […] IC50 values are obtained from the individual % inhibition values at different compound concentrations using a 4-parameter equation. These calculations are carried out using Activity Base (IDBS) or Screener (Genedata) data analysis programs.

[2] = biological target: T2, IDH2/R140Q (Homo sapiens, UniProt P48735, R140Q); assay: Biochemical assay for IDH2 R140Q mutant enzyme (2HG by RapidFire MS); settings: mean ± standard deviation of the mean; 90 minutes reaction
T2 construct: His-tag (N); made in house; host or cells: E. coli
T2 sequence (P48735 40-452 R140Q): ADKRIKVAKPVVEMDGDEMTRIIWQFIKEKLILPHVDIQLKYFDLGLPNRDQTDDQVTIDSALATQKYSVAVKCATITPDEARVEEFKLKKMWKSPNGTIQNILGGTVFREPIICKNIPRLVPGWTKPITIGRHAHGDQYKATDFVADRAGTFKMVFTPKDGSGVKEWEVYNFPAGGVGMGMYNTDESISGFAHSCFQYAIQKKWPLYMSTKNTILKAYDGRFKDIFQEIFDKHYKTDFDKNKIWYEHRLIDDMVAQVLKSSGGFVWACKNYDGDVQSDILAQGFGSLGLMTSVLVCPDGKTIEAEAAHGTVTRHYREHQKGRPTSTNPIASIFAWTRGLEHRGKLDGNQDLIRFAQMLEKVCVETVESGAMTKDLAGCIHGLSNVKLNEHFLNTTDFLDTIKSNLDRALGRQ
Protocol: as §1, §2

[3] = test system: IDH1/R132H in U87MG glioma cells; assay: U87MG/IDH1R132H cell assay (intracellular 2HG); format: cell-based; settings: Homo sapiens, U-87 MG, 1 hour + 18 hours incubation, read-out: U87MG (IDH1/R132H 2-hydroxyglutarate IC50)
Protocol: To test the cellular inhibition of IDH1 mutant R132C, the fibrosarcoma cell line HT1080 (purchased from ATCC) is used. For testing cell-based inhibition of the R132H mutation, the U87MG glioma cell line (ATCC) was stably transfected with a DNA construct expressing the R132H mutant enzyme.
Cells are plated in poly-D-lys coated 96 well plates (12,000 cells/well) 18-24 hours previous to treatment with compounds. Four hours prior to compound treatment, cells are glutamine-starved by removing normal media and replacing with glutamine-free media. Following starvation, cells are then treated with different concentrations of test compounds (20 μM to 1 nM) dissolved in glutamine free media containing DMSO at a final concentration of 0.2%. The initial compound incubation is for 1 hour at 37° C./5% CO2. After 1 hour, glutamine is added to a final 2 mM concentration and the treated cells are then incubated for a further 18 hours at 37° C./5% CO2. Intracellular 2HG is analyzed in cell lysates obtained after media removal and treatment with lysis buffer (25 mM Tris-HCl pH 7.5, 150 mM NaCl, 1 mM EDTA, 1 mM EGTA/1% Triton-X 100). Cell lysates are conserved at −80° C. until processing. For analyte extraction, an aliquot of thawed lysate is transferred to a deep 96-well plate and treated with cold MeOH containing d5-3HG as an internal standard followed by chloroform and H2O (1:4:3:2). The upper phase is collected after separation and injected in HPLC to separate 2HG (and internal standard) using hydrophilic interaction (HILIC) chromatography coupled to MS/MS detection in a 6460 triple quadrupole mass spectrometer. Percent inhibition for each individual sample is obtained after normalizing calculated 2HG concentration to maximum and minimum references obtained in the presence and in the absence of glutamine during cell treatment with compounds. IC50 values are obtained from individual % inhibition using a sigmoidal dose-response 4-parameter equation. These calculations are carried out automatically using Activity Base (IDBS) or Screener (Genedata) data analysis programs.

T1 sequence (O75874 whole entry R132C): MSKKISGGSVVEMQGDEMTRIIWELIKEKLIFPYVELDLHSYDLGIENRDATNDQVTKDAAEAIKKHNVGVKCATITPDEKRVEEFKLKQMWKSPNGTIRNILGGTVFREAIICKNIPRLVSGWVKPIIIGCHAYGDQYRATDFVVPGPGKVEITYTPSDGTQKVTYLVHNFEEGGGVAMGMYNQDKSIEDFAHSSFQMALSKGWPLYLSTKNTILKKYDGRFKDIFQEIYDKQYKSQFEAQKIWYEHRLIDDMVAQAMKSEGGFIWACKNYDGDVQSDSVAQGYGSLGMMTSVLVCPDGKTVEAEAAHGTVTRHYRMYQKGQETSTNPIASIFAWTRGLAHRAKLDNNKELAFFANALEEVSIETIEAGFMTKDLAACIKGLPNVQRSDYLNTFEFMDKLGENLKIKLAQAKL

Compound	IC50 [1] [µM]	IC50 [2] [µM]	IC50 ([3]; 19 h) [µM]	IC50 [3] [µM]
C=CC(=O)N1CCN(Cc2ccc([C@H](C)Nc3ncc4c(n3)N(CC)C(=O)OC4)cc2F)CC1 [Example 16, 1-Ethyl-7-[[(1S)-1-[3-fluoro-4-[(4-prop-2-enoylpiperazin-1-yl)methyl]phenyl]ethyl]amino]-4H-pyrimido[4,5-d][1,3]oxazin-2-one]	0.137 ± 0.044	49	0.00579 ± 0.00057	–
C=CC(=O)N1CC(OCc2ccc([C@H](C)Nc3ncc4c(n3)N(CC(C)C)C(=O)OC4)cc2)C1 [Example 13, 1-Isobutyl-7-[[(1S)-1-[4-[(1-prop-2-enoylazetidin-3-yl)oxymethyl]phenyl]ethyl]amino]-4H-pyrimido[4,5-d][1,3]oxazin-2-one]	0.0924 ± 0.0154	93.6	0.0075 ± 0.000283	–
C=CC(=O)N1CCN(c2ccc([C@H](C)Nc3ncc4c(n3)N(C(C)C)C(=O)OC4)cc2)CC1 [Example 6, 1-Isopropyl-7-[[(1S)-1-[4-(4-prop-2-enoylpiperazin-1-yl)phenyl]ethyl]amino]-4H-pyrimido[4,5-d][1,3]oxazin-2-one]	0.162 ± 0.042	> 100	0.0174 ± 0.0013	–
C=CC(=O)N1CCN(Cc2ccc([C@H](C)Nc3ncc4c(n3)N([C@H](C)CO)C(=O)OC4)cc2)CC1 [Example 11, 1-[(1R)-2-Hydroxy-1-methyl-ethyl]-7-[[(1S)-1-[4-[(4-prop-2-enoylpiperazin-1-yl)methyl]phenyl]ethyl]amino]-4H-pyrimido[4,5-d][1,3]oxazin-2-one]	0.119 ± 0.0541	> 100	0.00735 ± 7e-05	–
C=CC(=O)N1CCC2(CC1)CN(Cc1ccc([C@H](C)Nc3ncc4c(n3)N(C(C)C)C(=O)OC4)cc1)C2 [Example 8, 1-Isopropyl-7-[[(1S)-1-[4-[(7-prop-2-enoyl-2,7-diazaspiro[3.5]nonan-2-yl)methyl]phenyl]ethyl]amino]-4H-pyrimido[4,5-d][1,3]oxazin-2-one]	0.209 ± 0.075	> 100	0.0189 ± 0.0051	–
C=CC(=O)N1CCN(Cc2ccc([C@H](C)Nc3ncc4c(n3)N(CCF)C(=O)OC4)cc2)CC1 [Example 21, 1-(2-fluoroethyl)-7-[[(1S)-1-[4-[(4-prop-2-enoylpiperazin-1-yl)methyl]phenyl]ethyl]amino]-4H-pyrimido[4,5-d][1,3]oxazin-2-one]	0.485 ± 0.017	> 100	0.0246 ± 0.0159	–
C=CC(=O)N1CC(COc2ccc([C@H](C)Nc3ncc4c(n3)N(CC)C(=O)OC4)cc2)C1 [Example 17, 1-Ethyl-7-[[(1S)-1-[4-[(1-prop-2-enoylazetidin-3-yl)methoxy]phenyl]ethyl]amino]-4H-pyrimido[4,5-d][1,3]oxazin-2-one]	0.215 ± 0.086	48.7	0.00675 ± 0.00113	–
C=CC(=O)N1CC2(CN(Cc3ccc([C@H](C)Nc4ncc5c(n4)N(CC(C)C)C(=O)OC5)cc3)C2)C1 [Example 5, 1-Isobutyl-7-[[(1S)-1-[4-[(2-prop-2-enoyl-2,6-diazaspiro[3.3]heptan-6-yl)methyl]phenyl]ethyl]amino]-4H-pyrimido[4,5-d][1,3]oxazin-2-one]	0.0523 ± 0.0225	> 100	0.00984 ± 0.0081	–
C=CC(=O)N1CCN(Cc2ccc([C@H](C)Nc3ncc4c(n3)N(C(C)C)C(=O)OC4)cc2)CC1 [Example 1, 1-Isopropyl-7-[[(1S)-1-[4-[(4-prop-2-enoylpiperazin-1-yl)methyl]phenyl]ethyl]amino]-4H-pyrimido[4,5-d][1,3]oxazin-2-one]	0.0266 ± 0.0103	41.8	0.00265 ± 7e-05	–
C=CC(=O)N1CCC(N(C)Cc2ccc([C@H](C)Nc3ncc4c(n3)N(CC)C(=O)OC4)cc2)CC1 [Example 12, 1-Ethyl-7-[[(1S)-1-[4-[[methyl-(1-prop-2-enoyl-4-piperidyl)amino]-methyl]phenyl]ethyl]amino]-4H-pyrimido[4,5-d][1,3]oxazin-2-one]	0.457 ± 0.229	> 100	–	0.0135 ± 0.0011
C=CC(=O)N1CC(CCc2ccc([C@H](C)Nc3ncc4c(n3)N(CC)C(=O)OC4)cc2)C1 [Example 7, 1-Ethyl-7-[[(1S)-1-[4-[2-(1-prop-2-enoylazetidin-3-yl)ethyl]phenyl]ethyl]amino]-4H-pyrimido[4,5-d][1,3]oxazin-2-one]	0.0448 ± 0.0219	10.9	0.00564 ± 0.00035	–
